# Source: US12233041B2, “Disulfonate stilbenes for use in the treatment of proliferative diseases” (UNIVERSITÉ DE NANTES, priority 2018, dated 2025)
# Like-named read-outs stand apart in the source and are kept apart here.
# How the values were obtained:
# [1] = target: T1, Rad51 (Homo sapiens, UniProt Q06609); assay: DNA invasion by D-loop assay (strand exchange); format: biochemical
# T1 sequence (Q06609 1-339): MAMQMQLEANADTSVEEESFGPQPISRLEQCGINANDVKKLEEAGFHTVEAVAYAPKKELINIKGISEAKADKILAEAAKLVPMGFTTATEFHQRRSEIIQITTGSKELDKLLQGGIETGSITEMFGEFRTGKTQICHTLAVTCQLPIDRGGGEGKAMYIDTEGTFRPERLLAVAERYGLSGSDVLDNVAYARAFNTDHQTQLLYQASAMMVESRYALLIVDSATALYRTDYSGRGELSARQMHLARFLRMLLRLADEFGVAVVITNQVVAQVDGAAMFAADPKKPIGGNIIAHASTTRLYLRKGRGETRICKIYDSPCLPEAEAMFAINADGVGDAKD
# Method: Labeled 100-ssDNA** (1 μM) was incubated with 0.5 μM Rad51 in presence or absence of the indicated amounts of the corresponding molecule in 10 μL of standard reaction buffer containing 20 mM Tris-HCl (pH 8), 1 mM ATP, 1 mM DTT, 1 mM CaCl2) at 37° C. for 20 min. The reaction was initiated by adding supercoiled pPB4.3 DNA (200 μM in bp). After incubation of 30 min at 37° C., the reactions were stopped and deproteinized by a stop solution (10 mM Tris-HCl pH 8, 10 mM MgCl2, 1% SDS, and 1 mg/mL proteinase K. The reaction mixtures were further incubated for 15 min at 37° C. After adding 5-fold loading dye (0.05% bromophenol blue, 8% glycerol, 1 mM EDTA), the reaction products were separated by electrophoresis on 1% agarose gel. The electrophoresis was carried out in 0.5×TAE buffer (20 mM Tris, 10 mM acetic acid and 1 mM EDTA) at 100 V for 2 h. The labeled products (100-ssDNA** and D-loop) were visualized and quantified by the detection of the IRD-700 dye with the 700 nm infrared fluorescent detection channel of an Odyssey Infrared Imager (LI-COR) (Normand, A. et al., Biochemical Pharmacology, October 2014, Vol. 91, No. 3, pp. 293-300).
# The “D-loop” in vitro test allows the quantification of the formation of the strand exchange structure (D-loop) and thus the determination of the inhibitory power of a molecule during the strand exchange step of the recombinase mechanism. IC50 measuring the RAD51 protein inhibition in presence of compounds A-1 to A-5, […] and DIDS are then calculated.
# [2] = target: T2, HsRad51 (Homo sapiens, UniProt Q06609); assay: RAD51 oligomerization by SDS-PAGE gel after crosslink; format: biochemical; details: 2.5 μM HsRad51, disuccinimidyl suberate crosslink, SDS-PAGE/Western blot; FIG. 1
# T2 sequence (Q06609 1-339): T1 sequence (Q06609 1-339)
# Method: The reaction was performed at room temperature. 2.5 μm HsRad51 was incubated with the indicated concentrations of tested compounds for 10 min in a buffer containing 20 mm sodium phosphate, 50 mm NaCl, 1 mm MgCl 2, and 1 mm ATP. The cross-linking reactions were initiated by the addition of disuccinimidyl suberate (50 μm) and allowed to proceed for 30 min. Reactions were quenched by the addition of Tris-HCl (pH 7.5, final concentration: 50 mm) followed by subsequent incubations for 15 min. The products were then separated by 12% SDS polyacrylamide gel electrophoresis and detected by Western blot with mouse monoclonal anti-Rad51 antibody (NeoMarkers) and anti-mouse Alexa-Fluor 700-conjugated secondary antibody (Molecular Probes, Eugene, OR). The cross-linked dimer was quantified by an Odyssey Infrared Imaging System scanner (Li-Cor Biosciences) (Martinez, S. F. et al., “Targeting human Rad51 by specific DNA aptamers induces inhibition of homologous recombination”, Biochimie, December 2010, Vol. 92, No. 12, pp. 1832-1838).
# The SDS-PAGE electrophoresis after crosslink maintains and immobilizes the RAD51 protein complexes and thus allows visualization of the degree of oligomerization (polymer formation) of the RAD51 protein. The effect of RAD51 protein inhibitors B-1, B-2, B-3, DIDS and X-4 on this key step of RAD51 protein recombinase activity has thus been evaluated. The results are presented on FIG. 1.
# [3] = target: T1, Rad51; assay: RAD51 nucleofilament formation by Bio-Layer Interferometry (BLItz), binding of Rad51 to ssDNA; details: for activity on nucleofilament formation compared with reference molecule BPQ / formation of RAD51 protein nucleofilament (relative binding of RAD51 protein with single-stranded DNA): FIG. 2; for formation of RAD51 protein nucleofilament (relative binding of RAD51 protein with single-stranded DNA): increasing doses of inhibitors; for activity on nucleofilament formation compared with reference molecule DIDS: low dose (5 μM)
# Method: The binding of Rad51 to ssDNA was monitored and quantified by Bio-Layer Interferometry technology using the BLItz platform (FortéBio Inc.). The procedure includes four steps: (1) the baseline in buffer A containing 1×PBS, 10 mM MgCl2 and 0.0075% Tween20 was recorded for 20 s; (2) loading and binding of Rad51 were measured for 40 s using 1.5 μM Rad51 and 1 mM ATP in buffer A; (3) the dissociation of Rad51 from ssDNA was recorded for 20 s in buffer A; (4) the ssDNA biosensor was regenerated using baths of 50 mM NaOH. Except for the step 2, which used 4 μL drop of the protein sample, the steps 1, 3 and 4 used 250 μL solutions in 0.5 mL tube. The measurement parameters were as follows: room temperature measurement and stirring speed of 2200 rpm. To investigate the effect of CSB and analogs to the ssDNA binding of Rad51, the molecule was included in the protein sample of the step 2 at the indicated concentrations and incubated for 5 min before loading on the biosensor. (Normand, A. et al., “Identification and characterization of human Rad51 inhibitors by screening of an existing drug library.”, Biochemical Pharmacology, October 2014, Vol. 91, No. 3, pp. 293-300).
# A test based on interferometry (Blitz®, Fortebio) allows the measure of the association kinetics of RAD51 protein with a single-stranded DNA immobilized on a biosensor support in the presence or absence of an inhibitor. The effect of compounds B-1, B-2, B-3, BPQ and X-4 on RAD51 nucleofilament formation has been evaluated in presence of increasing doses of inhibitors. The results are presented on FIG. 2.
# [4] = test system: recombinant fibroblast line RG37; assay: Intracellular homologous recombination (HR), GFP reconstitution after I-SceI cleavage, flow cytometry; format: cell-based; details: RG37 cells, 72 h after pCMV-HA-I-SceI transfection; FIG. 3
# Method: After transfection with the pCMV-HA-I-SceI plasmid and incubation for 72 h, the cells were collected in PBS and 50 mM EDTA, pelleted and fixed with 2% paraformaledhyde for 20 min. The percentage of GFP-expressing cells was scored by FACS analysis using Cytoflex (Beckman Coulter). At least 3 independent experiments were performed, and HA-I-SceI expression was verified each time by Western blot with rabbit anti-HA antibody (Abcam).
# The recombinant fibroblast line RG37 is used to confirm in vitro results (Examples 2-5) in the cellular context. This cellar line comprises two non-functional GFP cassettes, one of which has a unique cleavage site inducible by transfection of a restriction enzyme. After cleavage, which is equivalent to a double-strand break (DSB) of the DNA, the homologous recombination (HR) leads to the reconstitution of a complete GFP cassette thus making the cell fluorescent. The rate of intracellular HR is then determined by measurement in flow cytometry so as to measure the level of HR in cells after treatment with compounds C-3, B-2 and X-2.
# [5] = test system: DU-145 cell line; assay: Clonogenicity test, sensitizing effect with an antineoplastic drug; format: cell-based; details: Homo sapiens; DU-145, camptothecin alone; read-out: IC50 (clonogenic survival, camptothecin)
# Method: Clonogenicity tests are carried out against several model cell lines derived from cancer including prostate cancer (DU-145). Cells are exposed to an anti-cancer agent targeting DNA (cisplatin or camptothecin). Damaged cells are counted and seeded in the presence or in the absence of B-2 in triplicate culture plates. After about two weeks of incubation at 37° C. the number of clones formed is counted. Each cell capable of repairing its lesions will then form a clone. After counting, the percentage of survival will be calculated relative to the control condition for which it is considered that there is 100% survival.
# The main interest of RAD51 protein inhibitors is the sensitization of chemo-resistant or radio-resistant cancerous cell lines. Clonogenicity evaluation was carried out on the DU-145 cell line treated with cisplatin treatment in the presence or in the absence of disulfonate stilbene B-2 (RAD51 protein inhibitor).
# DU-145 cell line was treated with camptothecin in the presence or in the absence of disulfonate stilbene B-2 (RAD51 protein inhibitor) and the clonogenic cell survival was determined.
# [6] = 0.5 μM Rad51, 1 μM 100-ssDNA, 37° C., read-out: IC50 (RAD51 protein inhibition, D-loop formation)
Compound,"IC50 [1, 6] [µM]",oligomerization state of RAD51 protein [2],formation of RAD51 protein nucleofilament (relative binding of RAD51 protein with single-stranded DNA) [3],also measured
"O=C(Nc1ccc(/C=C/c2ccc(NC(=O)c3ccccc3)cc2S(=O)(=O)O)c(S(=O)(=O)O)c1)c1ccccc1 [A-3, Sodium (E)-6,6′-(ethene-1,2-diyl)bis(3-benzamidobenzenesulfonate)]",> 10,–,–,–
"COc1ccc(C(=O)Nc2ccc(/C=C/c3ccc(NC(=O)c4ccc(OC)cc4)cc3S(=O)(=O)O)c(S(=O)(=O)O)c2)cc1 [A-4, Sodium (E)-6,6′-(ethene-1,2-diyl)bis(3-(4-methoxybenzamido)benzenesulfonate)]",6,–,–,–
"[N-]=[N+]=Nc1ccc(/C=C/c2ccc(N=[N+]=[N-])cc2S(=O)(=O)[O-])c(S(=O)(=O)[O-])c1.[Na+].[Na+] [B-1, Sodium (E)-6,6′-(ethene-1,2-diyl)bis(3-azidobenzenesulfonate)]",21,significant reduction,inhibit,activity on nucleofilament formation compared with reference molecule BPQ [3]: comparable to or even better; activity on nucleofilament formation compared with reference molecule DIDS [3]: comparable
"O=S(=O)([O-])c1cc(I)ccc1/C=C/c1ccc(I)cc1S(=O)(=O)[O-].[K+].[K+] [B-3, Potassium (E)-6,6′-(ethene-1,2-diyl)bis(3-iodobenzenesulfonate)]",34,significant reduction,inhibit,activity on nucleofilament formation compared with reference molecule BPQ [3]: comparable to or even better; activity on nucleofilament formation compared with reference molecule DIDS [3]: comparable
"O=C(Nc1ccc(/C=C/c2ccc(NC(=O)Oc3ccccc3)cc2S(=O)(=O)[O-])c(S(=O)(=O)[O-])c1)Oc1ccccc1.[Na+].[Na+] [C-3, Sodium (E)-6,6′-(ethene-1,2-diyl)bis(3-((phenoxycarbonyl)amino)benzenesulfonate)]",–,–,–,IC50 [1]: 2 µM; intracellular HR inhibition [4]: significant inhibitory effect
"O=S(=O)(O)c1cc(NS(=O)(=O)c2ccccc2)ccc1/C=C/c1ccc(NS(=O)(=O)c2ccccc2)cc1S(=O)(=O)O [S-1, Sodium (E)-6,6′-(ethene-1,2-diyl)bis(3-(phenylsulfonamido)benzenesulfonate)]",41,–,–,–
"Cc1ccc(S(=O)(=O)Nc2ccc(/C=C/c3ccc(NS(=O)(=O)c4ccc(C)cc4)cc3S(=O)(=O)O)c(S(=O)(=O)O)c2)cc1 [S-2, Sodium (E)-6,6′-(ethene-1,2-diyl)bis(3-((4-methylphenyl)sulfonamido)benzenesulfonate)]",29,–,–,–
"O=C(Nc1ccc(/C=C/c2ccc(NC(=O)Oc3ccccc3)cc2)cc1)Oc1ccccc1 [X-2, Diphenyl (ethene-1,2-diylbis(4,1-phenylene))(E)-dicarbamate, reference compound]",–,–,–,intracellular HR inhibition [4]: does not lead to any inhibition
"[N-]=[N+]=Nc1ccc(/C=C/c2ccc(N=[N+]=[N-])cc2)cc1 [X-4, (E)-1,2-bis(4-azidophenyl)ethene, reference compound]",–,no effect,no inhibitory effect whatsoever,–
"CC[C@@]1(O)C(=O)OCc2c1cc1n(c2=O)Cc2cc3ccccc3nc2-1 [camptothecin, reference compound]",–,–,–,IC50 [5]: 0.098 µM
